In one assay the target is T1, MARK3(48-370) Mutant 4 (Homo sapiens, UniProt P27448, A68G/E139D/F199L/F67Y/I62L/L128I/L130I/N66T/T204H/V116I/V205Q).
T1 construct: made in house; host or cells: E. coli Rosetta 2, co-expressed with BirA; soluble lysate used without purification
T1 sequence (P27448 48-370 I62L/N66T/F67Y/A68G/V116I/L128I/L130I/E139D/F199L/T204H/V205Q): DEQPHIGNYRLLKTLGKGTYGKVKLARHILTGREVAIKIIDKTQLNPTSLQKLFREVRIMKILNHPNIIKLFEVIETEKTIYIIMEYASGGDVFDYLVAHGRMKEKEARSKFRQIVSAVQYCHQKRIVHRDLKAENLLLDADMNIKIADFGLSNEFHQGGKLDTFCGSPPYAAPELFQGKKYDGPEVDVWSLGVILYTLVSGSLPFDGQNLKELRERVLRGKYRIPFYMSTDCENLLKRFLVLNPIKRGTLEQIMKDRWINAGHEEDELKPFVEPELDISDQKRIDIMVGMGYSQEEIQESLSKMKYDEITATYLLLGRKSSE
Nature of the assay: SPR Extract2Chip, cellular biotinylated MARK3 Mutant 4, GSK461364A injected. As to conditions: 15 °C. The assay is classed as binding. As for the experimental part: The cellular biotinylation of MARK3(48-370) kinase domain mutants followed the same approach as described for CypD. The 6 different mutants were expressed in Rosetta^TM 2 in PB media, and induced with 100 µM IPTG overnight at 18 °C.
The cellular biotinylated MARK3 NUAK2-like mutants were immobilized using the approach described in Section 2.5.2. The soluble cell lysates were diluted to a final concentration of 200 µg/mL, then injected over the neutravidin surfaces for 200 or 1400 s in order to reach 1000 to 2300 RU.
(§1) The interaction analysis cycles consisted of 140 s of sample injection followed by 350 to 600 s of running buffer flow. The running buffer was composed of 20 mM HEPES pH 7.4, 100 mM NaCl, 5 mM MgCl2, 1 mM EGTA, 1 mM DTT, 0.05% Tween-20, and 2% DMSO, and the experiment was performed at 15 °C.
All sensorgrams were processed by first subtracting the binding response recorded from the control surface (reference spot, where only the avidin protein is immobilized), followed by subtraction of the buffer blank injection from the reaction spot. All datasets were fitted to a simple 1:1 Langmuir interaction model to determine the kinetic rate constants, and the interaction affinity was additionally calculated at a steady state when applicable. […]

A further assay concerns the target T2, NUAK2(1-628) (Homo sapiens, UniProt Q9H093).
T2 construct: GST-NUAK2(1-628) was purchased from Carna Biosciences, Inc (Kobe, Japan); purchased Carna Biosciences, Inc (Kobe, Japan)
T2 sequence (Q9H093 1-628): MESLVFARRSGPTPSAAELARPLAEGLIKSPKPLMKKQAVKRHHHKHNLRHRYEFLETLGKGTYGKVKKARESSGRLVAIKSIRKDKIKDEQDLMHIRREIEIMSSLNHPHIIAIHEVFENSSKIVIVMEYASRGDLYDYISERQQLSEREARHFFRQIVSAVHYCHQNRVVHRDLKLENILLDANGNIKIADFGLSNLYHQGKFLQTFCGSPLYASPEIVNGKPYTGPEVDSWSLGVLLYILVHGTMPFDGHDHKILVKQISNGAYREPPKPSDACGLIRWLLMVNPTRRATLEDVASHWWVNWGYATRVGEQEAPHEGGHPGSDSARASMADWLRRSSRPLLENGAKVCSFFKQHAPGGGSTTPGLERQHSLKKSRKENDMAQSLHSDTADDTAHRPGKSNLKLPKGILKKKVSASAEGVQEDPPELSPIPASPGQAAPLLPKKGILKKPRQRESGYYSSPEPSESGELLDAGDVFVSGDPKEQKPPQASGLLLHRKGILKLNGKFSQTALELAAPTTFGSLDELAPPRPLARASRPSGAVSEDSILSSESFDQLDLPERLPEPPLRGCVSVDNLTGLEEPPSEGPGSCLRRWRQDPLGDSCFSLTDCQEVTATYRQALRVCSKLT
Nature of the assay: SPR, pure GST-NUAK2(1-628) immobilized by amine coupling, GSK461364A injected. The assay is classed as binding. The conditions noted are these: pure NUAK2(1-628); 15 °C. The protocol: as §1
All sensorgrams were processed by first subtracting the binding response recorded from the control surface (reference spot, where only the avidin protein is immobilized), followed by subtraction of the buffer blank injection from the reaction spot. All datasets were fitted to a simple 1:1 Langmuir interaction model to determine the kinetic rate constants, and the interaction affinity was additionally calculated at a steady state when applicable. In cases where small molecules were present during the assay, a DMSO solvent correction (1–3%) was applied to account for variations in bulk signal and to achieve high-quality data. The experiments with immobilized purified proteins were performed on a Biacore 4000 (Cytiva, Uppsala, Sweden), and the interaction was evaluated using the provided Biacore 4000 evaluation software, while the experiments with soluble cell lysates on a Biacore T200 (Cytiva, Uppsala, Sweden) used the provided Biacore T200 evaluation software. All SPR experiments were performed in duplicate.

In the case of `C[C@@H](Oc1cc(-n2cnc3ccc(CN4CCN(C)CC4)cc32)sc1C(N)=O)c1ccccc1C(F)(F)F` [GSK461364A], the “kd ± SD” value at MARK3(48-370) Mutant 4 came out at 0.029 ± 0.0028 s⁻¹; on NUAK2(1-628) it was 0.031 ± 0.017 s⁻¹.
